This data set can be described thus: gradient 5% acetonitrile 3 min, to 50% in 2 min, to 85% in 15 min, held 3 min, 100 µL/min. Conditions: column: Zorbax Extend-C18 2.1 x 50 mm; eluents: water / acetonitrile, 0.1% formic acid. The method in brief: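 In both positive and negative ionization mode, a quadrupole time-of-flight mass spectrometer coupled to HPLC analyzed pure standards run in mixtures of ~100 molecules. The Zorbax Extend-C18 column (2.1 × 50 mm, 1.8 μm) was operated at 100 μL/min with water and acetonitrile, each containing 0.1% formic acid. The dead volume was 40 μL and the dwell volume 900 μL. Retention time came from adduct peaks that were computationally picked and individually inspected by hand.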
Turning to `CCn1cc(-c2nc(C)c(C(=O)Nc3ccc(N4CCOCC4)cc3)s2)c2cccnc21`, the RP-LC retention time came out at 863 s.
`Cc1nn(-c2nc(-c3ccc(F)cc3)cs2)c(C)c1CC(=O)Nc1ccccc1Cl`: the RP-LC retention time was found to be 1230 s.
In turn, `CC1=NS(=O)(=O)N(C)C=C1C(=O)OCc1ccccc1C` came in with an RP-LC retention time of 616 s.
Turning to `CCOc1ccc(-c2noc(Cn3c(=O)n(CC(C)C)c(=O)c4ccccc43)n2)cc1`, the RP-LC retention time was 1210 s.
Compound `O=C(Nc1cccnc1)c1ccc(CNS(=O)(=O)c2cccc(C(F)(F)F)c2)cc1` registered an RP-LC retention time of 635 s.
With `Cc1ccnc(NC(=O)C2CCN(S(=O)(=O)c3cc(C(=O)N4CCOCC4)cs3)CC2)c1` the figure was 614 s.
The compound `CCCCn1c(=O)c2ccccc2n(Cc2nc(-c3cccc(OC)c3)no2)c1=O` showed an RP-LC retention time of 1160 s.
Compound `CCCNC(=O)N1CCCN(Cc2ccc3c(c2)OCO3)c2ccccc21` returned an RP-LC retention time of 924 s.
Compound `Cc1nn(C)c(C)c1S(=O)(=O)N1CCc2c(c(-c3nnc(-c4ccc(F)cc4)o3)nn2C)C1` yielded an RP-LC retention time of 805 s.
The same measure for `COc1ccc2c(c1)C1(CCN(S(=O)(=O)c3ccc(Cl)cc3)C1)C(=O)N2` (centres undefined): 894 s; for `O=C(NCc1ccc(F)cc1Cl)C1CCCN(c2cnc3nccnc3c2)C1` (centres undefined): 748 s; for `O=C(CCc1ccc2nc(-c3ccccc3)[nH]c2c1)N1CCCCCC1`: 642 s.
On to `O=C(NCCN1CCCCC1)C1CCN(c2cnn(Cc3ccccc3)c(=O)c2)CC1`, for which the RP-LC retention time stood at 614 s.
With `O=S(=O)(c1ccc2nc(N3CCN(Cc4ccc5c(c4)OCO5)CC3)cnc2c1)N1CCCCC1` the figure was 728 s; with `Cc1nc2cc(-c3noc(-c4ccc(C(F)(F)F)cc4)n3)ccc2n(C)c1=O`, 1180 s.
`Cc1ccc(C)c(NC(=O)Cn2ccc3ccc(-c4nnc(C)o4)cc32)c1` returned an RP-LC retention time of 1150 s.
Compound `N#Cc1ccc(C(=O)Nc2cnc(N3CCCCC3)nc2)cc1` displayed an RP-LC retention time of 862 s.
Compound `Cc1ccnc(NS(=O)(=O)c2ccc(NC(=O)CN3C(=O)CCC3=O)cc2)n1` came in with an RP-LC retention time of 546 s.
`CCOc1ccc(-c2csc(C)n2)cc1S(=O)(=O)N1CCN(c2ccc(OC)cc2)CC1` showed an RP-LC retention time of 1060 s.
The same measure for `CCc1noc(C2CCCCN2C(=O)CCc2c[nH]c3ccccc23)n1` (centres undefined): 888 s.
`COc1cccc(-c2ccc(=O)n(CCc3nc(-c4ccc(Br)cc4)no3)n2)c1`: the RP-LC retention time came to 1110 s.
In turn, `O=C(NCC1CC1)c1cn(C2CN(C(=O)Nc3ccc4c(c3)OCCO4)C2)nn1` yielded an RP-LC retention time of 685 s.
`CCOC(=O)Nc1ccc2c(c1)CN(C(C)=O)CC2`: the RP-LC retention time came out at 628 s.
Turning to `COC(=O)c1cccc(NC(=O)NC2CCN(c3ccccc3)C2=O)c1` (centres undefined), the RP-LC retention time is 769 s.
Consider `CCN(CC)C(=O)C1CCCN(S(=O)(=O)c2ccc(OC)c(C)c2)C1` (centres undefined), for which the RP-LC retention time was 881 s.
`Cc1cccc(Nc2nc(CC(=O)NCCOc3ccc(F)cc3)cs2)n1` yielded an RP-LC retention time of 651 s.
As for `O=C(NCC(c1cccnc1)N1CCc2ccccc21)C(=O)Nc1ccc2c(c1)OCCO2` (centres undefined), the RP-LC retention time was found to be 730 s.
`Cc1ccc(C)c(NC(=O)Cn2cccc2-c2nc(-c3ccc4c(c3)OCO4)no2)c1` had an RP-LC retention time of 1050 s.
Take `CN(C)[C@@H]1CN(C(=O)Cc2cccc3ccccc23)C[C@H]1CO`: the RP-LC retention time came out at 546 s.
With `CSc1ccccc1C(=O)NCC1CN(c2ccccc2)C(=O)O1` (centres undefined) the figure was 712 s; with `COc1ccc(CC(C)(O)CNC(=O)Nc2cccs2)cc1` (centres undefined), 699 s.
Compound `CCOC(=O)CN1C(=O)CC(C[C@@H](O)C2C[C@@H](C)C[C@H](C)C2=O)CC1=O` (some centres undefined) displayed an RP-LC retention time of 821 s.
Compound `O=C(CSc1ncccc1-c1noc(C2CCC2)n1)N1CCCCC1` registered an RP-LC retention time of 979 s.
`Cc1ccc(NS(=O)(=O)c2cn(CC(C)C)c3ncccc23)c(F)c1` showed an RP-LC retention time of 986 s.
`O=C(Cn1nc2n(c1=O)CCCCC2)Nc1cccc(Br)c1` showed an RP-LC retention time of 757 s.
The same measure for `CCN1C(=O)c2cccnc2Sc2cc(NC(=O)c3ccc(C(C)C)cc3)ccc21`: 998 s.
Compound `COc1ccc(-c2cc(C(=O)N3CCN(S(=O)(=O)c4ccc(OC)c(OC)c4)CC3)[nH]n2)cc1` displayed an RP-LC retention time of 795 s.
In turn, `CCn1cc(-c2ccncc2)cc1C(=O)NCc1ccc(SC)cc1` came in with an RP-LC retention time of 689 s.
`O=C(NCCC1=CCCCC1)c1ccc(CN2CCN(C3CCCC3)C(=O)C2=O)cc1` yielded an RP-LC retention time of 836 s.
Regarding `CCN1C(SCC(=O)N(C)c2ccccc2)=NS(=O)(=O)c2ccccc21`, the RP-LC retention time was found to be 1000 s.
`O=C(Nc1ccc(S(=O)(=O)N2CC3CC(C2)c2cccc(=O)n2C3)cc1)C1CC1` (centres undefined) gave an RP-LC retention time of 631 s.
With `COc1cn(C)c(C(=O)NCCC(c2ccccc2)c2ccccc2)cc1=O` the figure was 667 s; with `Cc1ccccc1S(=O)(=O)N1CCC(c2noc(-c3cccnc3)n2)C1` (centres undefined), 908 s; with `Cc1cc2c(N3CCCC(C(=O)NCc4cccc(Cl)c4)C3)nccc2s1` (centres undefined), 713 s.
With `Cc1ccccc1NC(=O)N(C)CC1CCOC1` (centres undefined), the RP-LC retention time is 704 s.
Consider `CCc1nn2c(CNC(=O)c3ccccc3Br)c(C)nc2s1`, for which the RP-LC retention time amounted to 636 s.
For `Cc1ccccc1NC(=O)Cn1cnc2nc(N3CCCC(C(=O)NC4CC4)C3)sc2c1=O` (centres undefined), the RP-LC retention time was found to be 644 s.
`CCCn1cc(CCNC(=O)Nc2cccc(Br)c2)c2cccnc21` yielded an RP-LC retention time of 865 s.
`O=C(NCCn1c(=O)n(Cc2ccccc2)c2cccnc21)c1ccco1` came in with an RP-LC retention time of 725 s.
In turn, `O=C(C1=CN(c2ccccc2F)c2cc(F)ccc2S1(=O)=O)N1CCCCC1` gave an RP-LC retention time of 848 s.
The same measure for `Cn1c(=O)n(CC(=O)N2CCOCC2)c(=O)c2cnc(-c3ccc(Cl)cc3)nc21`: 859 s; for `CCNC(=O)N(CCOC)CC(=O)N1CCc2sccc2C1COc1ccccc1` (centres undefined): 815 s; for `COc1ccc(OC)c(S(=O)(=O)Cc2nc(-c3ccc(Cl)cc3)no2)c1`: 1030 s.
As for `O=C(NC1CCCCC1)c1nnc(-c2ccc(S(=O)(=O)N3CCCCC3)cc2)o1`, the RP-LC retention time was found to be 1040 s.
In the case of `Cc1ccc(-c2ccc(N3CCCC(C(=O)NC4CCCC4)C3)nn2)cc1` (centres undefined), the RP-LC retention time worked out at 696 s.
With `COc1ccc(-c2noc(-c3nc(Cc4cccc(F)c4)no3)n2)cc1` the figure was 1170 s; with `Cn1c(C2CCN(S(C)(=O)=O)CC2)nn(Cc2ccc(Cl)c(Cl)c2)c1=O`, 739 s.
For `COC(=O)c1c(C)[nH]c(C(=O)N2CCC(CC(=O)NCc3ccccc3)CC2)c1C`, the RP-LC retention time amounted to 716 s.
With `O=C(CN1CCN(Cc2ccccc2)C1=O)NCc1ccccc1Br` the figure was 824 s.
Regarding `COCCN1CC2(CCN(S(=O)(=O)c3ccc(Cl)cc3C)CC2)C1c1ccccc1` (centres undefined), the RP-LC retention time worked out at 779 s.
With `O=C(NCc1ccccn1)C1(CCO)CCN(c2ncccn2)C1` (centres undefined) the figure was 522 s.
Take `COc1ccccc1-c1nnc(-c2cccc(S(=O)(=O)N(C)C)c2)o1`: the RP-LC retention time stood at 840 s.
`CCC(=O)Nc1ccc(OCc2cc(C(=O)NC3CCCCC3)no2)cc1` showed an RP-LC retention time of 840 s.
Regarding `Cc1ccc(-c2coc(-c3ccc(NC(=O)CC(C)C)cc3)n2)c(C)c1`, the RP-LC retention time came out at 1240 s.
With `CCc1ccccc1N1C(=O)c2c(C(=O)OC)ncn2CC1(C)C(=O)NCc1ccccc1` (centres undefined) the figure was 735 s.
With `COc1ccccc1NC(=O)N1CC(C)Oc2ccc(C)cc21` (centres undefined) the figure was 1130 s.
With `O=C(OCC(=O)c1ccc(Cl)cc1Cl)c1ccc2ccccc2n1` the figure was 991 s.
As to `COc1ccc(S(=O)(=O)CCc2noc(C(=O)NCCN3CCC(C)CC3)n2)cc1`, the RP-LC retention time came to 646 s.
In turn, `COc1cc2c(cc1O)[C@@H](Cc1ccc(O)c(Oc3ccc(C[C@@H]4c5cc(OC)c(OC)cc5CCN4C)cc3)c1)N(C)CC2` showed an RP-LC retention time of 639 s.
`CCN1C(=O)C(CC(=O)NCCOC)Sc2ncccc21` (centres undefined) returned an RP-LC retention time of 593 s.
Turning to `c1cnn(-c2cc(N3CCSCC3)ncn2)c1`, the RP-LC retention time is 833 s.
In the case of `O=C(NCCc1c[nH]c2ccc(Cl)cc12)c1cc(-c2cccnc2)nc2ccccc12`, the RP-LC retention time turned out to be 805 s.
`O=C(CSc1nnc(-c2csc3c2CCCC3)o1)Nc1ccccc1` gave an RP-LC retention time of 769 s.
With `Cc1cc(C)cc(NC(=O)N2CC(c3nc(C(C)C)nn3C)C2)c1`, the RP-LC retention time worked out at 718 s.
As for `O=C(Nc1ccccc1)N1CCC2(CC1)N(C1CCCC1)C(=O)CS2=O` (centres undefined), the RP-LC retention time came out at 692 s.
With `CC(=O)Oc1ccc2cc(-c3ccccc3)c(=O)oc2c1` the figure was 1000 s.
The compound `Cc1nc2c(NC(=O)c3ccc(C(F)(F)F)s3)cccn2n1` registered an RP-LC retention time of 900 s.
For the compound `COc1ccc(NC(=O)[C@@H]2c3ccccc3C(=O)N3CCCC[C@@H]23)cc1OC`, the RP-LC retention time is 727 s.
As to `COc1ccc(C2CN(S(=O)(=O)c3ccc(C#N)cc3)CCN2C)cc1` (centres undefined), the RP-LC retention time stood at 564 s.
